Data on 95 compounds can be found in ChEMBL document CHEMBL3507680, “University of Dundee, Gates Library screen for HepG2 cell viability”.

This data set is described as follows: Human HepG2 cell viability assay in 384 well format. The format is toxicity, cell-based. To be noted: HepG2 cells, read-out: Inhibition. Details: dose 125 nL, time 70.5 hour; cytotoxicity at 70.5 h: concentration not given beside the values.

With `Cc1cc(Cl)c(C)c(S(=O)(=O)N2CCN(Cc3ccncc3)CC2)c1Cl`, the cytotoxicity at 70.5 h was -25.9%.

Take `CC(=O)N1CC[C@@H]2O[C@H](C(=O)Nc3nc(C)cs3)C[C@@H]21`: the cytotoxicity at 70.5 h is -3.43%.

Consider `CCN(C(=O)c1nc2c(s1)CCCN2S(C)(=O)=O)C(C)C`, for which the cytotoxicity at 70.5 h is 13.1%.

Turning to `c1cc(COC[C@@]23CCC[C@@H]2CN(C2CCOCC2)C3)ccn1`, the cytotoxicity at 70.5 h is -2.91%.

`O=C1CO[C@@H]2CN(S(=O)(=O)c3ccccc3F)C[C@H]2N1`: the cytotoxicity at 70.5 h was -3.37%.

Consider `Cn1cc(CN2CCc3onc(C(=O)Nc4cccnc4)c3C2)cn1`, for which the cytotoxicity at 70.5 h was -3.27%.

`CN(C)C(=O)[C@H]1CCS(=O)(=O)[C@@H]2CN(c3ncc(F)cn3)C[C@H]12`: the cytotoxicity at 70.5 h amounted to 23.5%.

Regarding `O=S(=O)(c1cccs1)N1Cc2nc(COCC3CC3)oc2C1`, the cytotoxicity at 70.5 h was -5.06%.

For the compound `CC(=O)N1CCC2(CC1)CN(C(C)C)c1ccc(F)cc12`, the cytotoxicity at 70.5 h is -1.77%.

For `Cc1ccc2c(c1)C1(CCN(C(N)=O)CC1)CN2CC1CC1`, the cytotoxicity at 70.5 h was -1.07%.

With `CC(C)N(C)Cc1ncn2c1CN(C(=O)C1CCCO1)CCC2` (stereo not given), the cytotoxicity at 70.5 h is -0.921%.

On to `c1cc2nc(C3CCNCC3)nn2cc1NC1CCC1`, for which the cytotoxicity at 70.5 h came out at 23.2%.

In the case of `CCc1ncnc2c1CCN(S(=O)(=O)c1ccccc1)CC2`, the cytotoxicity at 70.5 h amounted to 3.38%.

As for `CN(C)C[C@@H]1C[C@@H]2CN(Cc3nccn3C)CC[C@@H]2N1CC1CC1`, the cytotoxicity at 70.5 h was -0.157%.

Turning to `CCS(=O)(=O)N1Cc2cncn2CC(C(=O)NCC2CC2)C1` (stereo not given), the cytotoxicity at 70.5 h worked out at 1.86%.

`Cn1cc(C2COC3(CCN(C(=O)Cc4ccccc4)CC3)C2)cn1` (stereo not given): the cytotoxicity at 70.5 h is -8.09%.

As to `Cc1cccc(S(=O)(=O)N2Cc3nccn3CC(CN(C)C)C2)c1` (stereo not given), the cytotoxicity at 70.5 h was -8.23%.

Regarding `O=C1N(c2ccsc2)CCC12CCCN(c1ncc(F)cn1)C2` (stereo not given), the cytotoxicity at 70.5 h was -9.83%.

On to `CCOCC1CN(S(=O)(=O)c2ccccc2)Cc2nccn2C1` (stereo not given), for which the cytotoxicity at 70.5 h worked out at 13.5%.

`COCC1CC2(CCN(Cc3nc(C)cs3)CC2)CO1` (stereo not given): the cytotoxicity at 70.5 h was -8.71%.

For `CCS(=O)(=O)N1CCc2c(COCc3ccncc3)cncc2C1`, the cytotoxicity at 70.5 h was 18.9%.

For `CN(C)CCNCC1COCc2c(-c3ccnn3C)nnn2C1` (stereo not given), the cytotoxicity at 70.5 h was 16.1%.

Turning to `CC(=O)N1CCC2(CC1)c1ncc(-c3ccc(F)cc3)n1CCN2C`, the cytotoxicity at 70.5 h is -3.18%.

Consider `O=C(NCc1ccccc1)N1CCc2ncnc(NC3CC3)c2CC1`, for which the cytotoxicity at 70.5 h was -3.8%.

Consider `CC(C)CN1C[C@H]2N(c3ncccn3)CCC[C@@]2(C(=O)NCC2CC2)C1`, for which the cytotoxicity at 70.5 h was -3.44%.

As for `CC1(C)CC1(C(=O)N1CC(c2cccnc2)C1)c1ccc(F)cc1` (stereo not given), the cytotoxicity at 70.5 h is 29.7%.

Consider `CC(C)[C@@H]1CN(C2CCN(Cc3ccccc3)CC2)C[C@H]1NS(C)(=O)=O`, for which the cytotoxicity at 70.5 h stood at 0.292%.

Consider `OCC1(O)CCN(c2ccnc3c(C(F)(F)F)cccc23)CC1`, for which the cytotoxicity at 70.5 h was -3.41%.

Take `CC(=O)c1cnc(N(C)Cc2cc(C)cc(C)n2)nc1C`: the cytotoxicity at 70.5 h is -8.24%.

As to `COC(=O)CCCn1ccnc1-c1ccccc1`, the cytotoxicity at 70.5 h was -3.23%.

As for `O=C(O)c1cccc(N2C[C@H](NC(=O)C3CCOCC3)[C@@H](C3CC3)C2)n1`, the cytotoxicity at 70.5 h was -4.78%.

On to `Cc1cc(N2CCC(c3nccn3Cc3cscn3)CC2)ccn1`, for which the cytotoxicity at 70.5 h was -3.14%.

As for `CCC(CC)CN1CCC2(CCC(=O)N2OCc2ccccc2F)CC1`, the cytotoxicity at 70.5 h stood at 21.6%.

`CCOC(=O)c1coc(N2CCC(N3CCC(O)CC3)CC2)n1`: the cytotoxicity at 70.5 h is -7.59%.

Consider `CS(=O)(=O)N1CCC(N2CCCC2c2ccccn2)CC1` (stereo not given), for which the cytotoxicity at 70.5 h is 2.33%.

On to `CN1CC(c2ccccc2)CC2(CCN(C(=O)c3ccccc3)CC2)C1` (stereo not given), for which the cytotoxicity at 70.5 h is -5.15%.

For the compound `Nc1ccnc(N2C[C@H](O)[C@@H](N3CCN(c4ccccn4)CC3)C2)n1`, the cytotoxicity at 70.5 h was -17.6%.

Regarding `Cc1nn2c(N3CCC(C#N)CC3)cc(-c3ccccc3)nc2c1C`, the cytotoxicity at 70.5 h was 1.27%.

As to `Cn1ccnc1SCCNC1CCN(c2nc3ccccc3s2)CC1`, the cytotoxicity at 70.5 h was -1.58%.

With `Cc1nc(C(C)C)ncc1C(=O)N1CCc2c(nc(N(C)C)[nH]c2=O)C1`, the cytotoxicity at 70.5 h was -4.39%.

With `CCc1nn(C)c(Cl)c1CN1CCC(Cc2nncn2C)CC1`, the cytotoxicity at 70.5 h is -3.75%.

Consider `CSCc1nc(CCNC(=O)C2CCCN(C(C)=O)C2)cs1` (stereo not given), for which the cytotoxicity at 70.5 h was -2.37%.

With `CCN1CC2(CCC1=O)CCN(Cc1nncn1C)CC2`, the cytotoxicity at 70.5 h was -5.87%.

Take `O=C(NCCc1nccs1)C1CCCN(Cc2ccco2)C1` (stereo not given): the cytotoxicity at 70.5 h was -2.53%.

`CCOc1ccc(CN2CCCC(c3nn(C)c(=O)n3CC)C2)cn1` (stereo not given): the cytotoxicity at 70.5 h was -6.89%.

As to `Cc1noc(-c2ccc(N3CCN(Cc4nccn4C)CC3)nc2)n1`, the cytotoxicity at 70.5 h is -15.7%.

Regarding `Fc1ccc(-c2cc(NCCC3CCOC3)n3nccc3n2)cc1` (stereo not given), the cytotoxicity at 70.5 h amounted to 0.148%.

As for `COC(C)(C)C(=O)N[C@H]1CN(c2nccnc2N(C)C)C[C@@H]1C(C)C`, the cytotoxicity at 70.5 h is -5.98%.

Take `CC(C)c1nc(CCn2cncn2)n(-c2ccc3c(c2)OCCO3)n1`: the cytotoxicity at 70.5 h was -12.6%.

Turning to `CC(C)CCNC(=O)C(c1cccc(F)c1)N(C)C` (stereo not given), the cytotoxicity at 70.5 h came out at 3.05%.

Take `c1cc2c(c(-c3cc(N4CCOCC4)ncn3)c1)CCNC2`: the cytotoxicity at 70.5 h was -7.28%.

As to `CCCOC1CCCN(c2ccnc(C(=O)NCc3ccco3)c2)C1` (stereo not given), the cytotoxicity at 70.5 h is -8.53%.

As for `CN1CCC(O)(CCNC(=O)[C@@]23CNC[C@@H]2CN(C2CCCC2)C3)CC1`, the cytotoxicity at 70.5 h worked out at 11.4%.

Take `c1ccc2c(c1)CC(n1ccnc1-c1cc3n(n1)CCCNC3)CO2` (stereo not given): the cytotoxicity at 70.5 h was -6.83%.

In the case of `O=C(CC1CC1)N(Cc1cccnc1)CC1CCN(C2CCCC2)CC1`, the cytotoxicity at 70.5 h is -1.09%.

As to `Cc1cccc2c(=O)n(C(C)Cc3cccnc3)cnc12` (stereo not given), the cytotoxicity at 70.5 h is -8.06%.

On to `COCCCn1c(CN2CCSCC2)cnc1S(=O)(=O)C1CCCC1`, for which the cytotoxicity at 70.5 h is -2.29%.

In the case of `CC(C)CCCC1CN(C(=O)c2cnc[nH]2)CCO1` (stereo not given), the cytotoxicity at 70.5 h is -11.4%.

Regarding `Cc1cc(C)c2c(N3CCN(Cc4ncccc4C)CC3)ncnc2n1`, the cytotoxicity at 70.5 h is -8.35%.

Consider `Cc1nc2cc(C(=O)N3C[C@@H](NS(C)(=O)=O)[C@H](C(C)C)C3)ccc2[nH]1`, for which the cytotoxicity at 70.5 h worked out at 18.5%.

Regarding `Cc1cc(C)c2nc(CN3CCOCC(O)C3)cc(O)c2c1` (stereo not given), the cytotoxicity at 70.5 h was -0.735%.

In the case of `CCN(Cc1nc(COC)no1)Cc1cccnc1NC`, the cytotoxicity at 70.5 h is -21.9%.

Turning to `CCOC(=O)c1coc(N2CCC(C(O)CC(C)C)CC2)n1` (stereo not given), the cytotoxicity at 70.5 h was -1.6%.

For the compound `COc1cccc(N2CCC(N3CCOC(C(F)(F)F)C3)CC2)c1` (stereo not given), the cytotoxicity at 70.5 h was -18.1%.

Turning to `O=C(NC1CCNC1)C1(N2CCCCC2)Cc2ccccc2C1` (stereo not given), the cytotoxicity at 70.5 h amounted to 1.09%.

On to `CN1CCC(n2nc(CC3CC3)nc2-c2ccc(F)cc2Cl)CC1`, for which the cytotoxicity at 70.5 h is -7.5%.

For the compound `Cn1cc(C(=O)NCc2cncc3c2CCN(S(C)(=O)=O)C3)cn1`, the cytotoxicity at 70.5 h stood at 0.567%.

Turning to `Cn1cc(C(=O)NCc2cncc3c2CCN(c2ccccn2)C3)cn1`, the cytotoxicity at 70.5 h was determined as 17.4%.

Regarding `COCC1COCCC12CCN(S(=O)(=O)c1cccnc1)CC2` (stereo not given), the cytotoxicity at 70.5 h is -1.01%.

Regarding `Cc1noc(C)c1CN1CCn2cc(CN3CCCCC3)nc2C1`, the cytotoxicity at 70.5 h was -3.15%.

On to `CN1C(=O)CCC12CCCN(C(=O)c1ccncc1F)C2` (stereo not given), for which the cytotoxicity at 70.5 h is -5.46%.

Consider `Cn1cnc(S(=O)(=O)N2CC3(CCN(c4ccccc4)C3)C2)c1`, for which the cytotoxicity at 70.5 h turned out to be 20.3%.

`c1ccc(N2CCOC3(CCCN(c4ncccn4)C3)C2)nc1` (stereo not given): the cytotoxicity at 70.5 h was -5.71%.

As for `Cc1ccc(N2CCC3(CCC(=O)N3Cc3ccncc3)CC2)nn1`, the cytotoxicity at 70.5 h was 0.778%.

Consider `O=C(c1ccco1)N1CC[C@@H]2CN(C3CCOCC3)CCO[C@@H]2C1`, for which the cytotoxicity at 70.5 h stood at 0.698%.

Regarding `CC1c2ncc(Cn3cccn3)n2CCN1c1ncccn1` (stereo not given), the cytotoxicity at 70.5 h was -8.84%.

As to `CN(C)c1nc(N2CCCC2)nc2c1CCN(Cc1nccn1C)CC2`, the cytotoxicity at 70.5 h is 8.52%.

Turning to `CCCN1CCC(c2nc3ccc(-c4ccccc4)cn3n2)CC1`, the cytotoxicity at 70.5 h is -10.7%.

Regarding `O=C(C1CCOC1)N1C[C@H]2CN(Cc3ccncc3)C(=O)[C@H]2C1` (stereo not given in full), the cytotoxicity at 70.5 h was -9.99%.

Take `CCN(C)c1ncnc2c1CCN(S(=O)(=O)c1ccccc1)CC2`: the cytotoxicity at 70.5 h was -5.89%.

In the case of `CC(=O)N1CCC(c2nc3ccc(NC4CCC4)cn3n2)CC1`, the cytotoxicity at 70.5 h was -5.56%.

Regarding `Cc1ccc(CS(=O)(=O)N2Cc3c(CN(C)C)nn(C)c3C2)cc1`, the cytotoxicity at 70.5 h was -4.61%.

On to `O=c1cc(CNS(=O)(=O)C2CC2)nc2n1CCCN(CC1CC1)C2`, for which the cytotoxicity at 70.5 h was -5.1%.

For the compound `CN(C)CCN1C[C@@H]2CN(c3ccccc3)C[C@@H]2C1=O`, the cytotoxicity at 70.5 h came to 23.6%.

For the compound `CN1C[C@H]2N(c3ncccn3)CCC[C@@]2(C(=O)NCC2CC2)C1`, the cytotoxicity at 70.5 h is -6.84%.

In the case of `O=C(NCc1cccnc1)N1CCc2ncnc(NC3CC3)c2CC1`, the cytotoxicity at 70.5 h turned out to be 11.7%.

Regarding `Cc1cccc(N2CC[C@H]3[C@H](CO[C@@H]3CN(C)Cc3ccco3)C2)n1`, the cytotoxicity at 70.5 h stood at 2.69%.

As to `Cc1ccc(N2CC[C@H]3CO[C@H](CN(C)Cc4ccco4)[C@H]3C2)nn1`, the cytotoxicity at 70.5 h is -0.777%.

In the case of `CCOC(=O)[C@]12CCCN(Cc3cccs3)C[C@H]1CN(C(C)C)C2`, the cytotoxicity at 70.5 h is 1.55%.

For `Cc1ccc(CN2C[C@H](OCCN(C)C)[C@H]3COC[C@H]32)o1`, the cytotoxicity at 70.5 h is -0.961%.

Consider `c1coc(CN2C[C@@H]3CN(Cc4ccoc4)CCO[C@@H]3C2)c1`, for which the cytotoxicity at 70.5 h is -1.5%.

For the compound `Cn1cnc(S(=O)(=O)N2CC3(CCN(CC4CC4)C3)C2)c1`, the cytotoxicity at 70.5 h was 14.6%.

For the compound `CCCN1CCC(c2nc3ccc(-c4ccncc4)cn3n2)CC1`, the cytotoxicity at 70.5 h worked out at 19.7%.

`Cc1noc(C)c1CN1CCc2ncnc(-c3cccnc3)c2CC1`: the cytotoxicity at 70.5 h was -0.64%.

Consider `O=C(C1CCCO1)N1CCC2(CC1)COCCN(Cc1cccnc1)C2` (stereo not given), for which the cytotoxicity at 70.5 h was -2.16%.
